Measured values published in patent US7608716B2, “Pyrazolonaphthyridine derivative” (Aska Pharmaceutical Co., Ltd., priority 2002, dated 2009).

What was measured:
Beagle dogs = test: Emetic action on dogs; type: in vivo; details: oral, 1 mg/kg
Experimental: Beagle dogs received a suspension of each test compound in 0.5% CMC-Na solution orally at a dose of 1 mg/2 mL/kg.

CYP3A4 = biological target: T1, CYP3A4 (Homo sapiens, UniProt P08684); test: Inhibition of drug-metabolizing enzyme CYP3A4 (CYP3A4/BFC kit); type: in vitro ADME; details: CYP3A4-expressing microsomes, BFC substrate, 37° C., 30 minutes; read-out: Inhibition of Drug-Metabolizing Enzymes (IC50; μM) CYP3A4
T1 construct: purchased BD Biosciences, NJ, USA; host or cells: CYP3A4-expressing system microsomes
Experimental: (§1) The inhibitory effect on CYP2D6 and CYP3A4 was determined using High Throughput Inhibitor Screening Kits: CYP2D6/AMMC and CYP3A4/BFC (both from BD Biosciences, NJ, USA). Briefly, each of NADPH regenerating systems, cofactors, and test compounds was dispensed into 96-well plates, followed by addition of each of fluorescent substrates, AMMC (CYP2D6) or BFC (CYP3A4). To each well were added CYP2D6-expressing system microsomes or CYP3A4-expressing system microsomes, and the plates were incubated at 37° C. for 30 minutes, and then read for fluorescent signals (CYP2D6: ex=390 nm, em=460 nm; CYP3A4: ex=409 nm, em=538 nm wherein excitation wavelength: ex and emission wavelength: em). Thus, each inhibitory efficacy on enzymes CYP2D6 and CYP3A4 was determined. Roflumilast was used for the reference compound in this assay.

TNF-α production = test: Inhibition of TNF-α production in galactosamine- and LPS-stimulation; type: in vivo; details: Mus musculus; C3H/HeN mice, oral, 1 hour before galactosamine/LPS i.v.; serum TNF-α by ELISA 1 hour later; read-out: Inhibition of TNF-α production ED50: mg/kg orally
Experimental: A suspension of each test compound in 0.5% CMC-Na solution was administered orally to C3H/HeN mice at a dose of 0.10 to 10 mg/kg. One hour later, the animals received intravenously galactosamine at a dose of 800 mg/kg and LPS at a dose 5 μg/kg to raise the induction of TNF-α production. One hour later after the galactosamine- and LPS-administration, amounts of TNF-α in serum samples were measured by ELISA, and ED50 was obtained. Roflumilast and SB207499 were used for the reference compounds in this assay.

CYP2D6 = biological target: T2, CYP2D6 (Homo sapiens, UniProt P10635); test: Inhibition of drug-metabolizing enzyme CYP2D6 (CYP2D6/AMMC kit); type: in vitro ADME; details: CYP2D6-expressing microsomes, AMMC substrate, 37° C., 30 minutes; read-out: Inhibition of Drug-Metabolizing Enzymes (IC50; μM) CYP2D6
T2 construct: purchased BD Biosciences, NJ, USA; host or cells: CYP2D6-expressing system microsomes
Experimental: as §1

[1] = test system: lung eosinophil infiltration; test: Inhibition of lung eosinophil infiltration (OVA-sensitized, BALF); type: in vivo, Hartley guinea-pigs; details: Cavia porcellus, guinea-pigs, oral, 1 hour before OVA inhalation, BALF eosinophils at 24 hours, read-out: Inhibition of Lung Eosinophil Infiltration ED50: mg/kg orally
Experimental: Hartley guinea-pigs were sensitized by inhaling twice 1% ovalbumin (OVA) in a physiological saline for 10 minutes with a nebulizer (Atom Medical Corporation, Japan) at an interval of 1 week. The animals were orally given a suspension of test compounds at a dose of 0.03 to 3 mg/2 mL/kg one week after the final sensitization. One hour later, the animals were exposed to antigens by inhalation of 2% OVA in a physiological saline for 5 minutes with a nebulizer. Thirty minutes before the antigen challenge, the animals were intraperitoneally pretreated with pyrilamine at a dose of 10 mg/kg to avoid fatality due to anaphylactic shock. Bronchoalveolar lavage fluid (BALF) samples were collected 24 hours after the exposure by inhalation of antigens, and eosinophils were counted.

[2] = test system: lung neutrophil infiltration; test: Inhibition of lung neutrophil infiltration (LPS inhalation, BALF); type: in vivo, Hartley guinea-pigs; details: Cavia porcellus, guinea-pigs, oral, 1 hour before LPS inhalation, BALF neutrophils at 24 hours, read-out: Inhibition of Lung Neutrophil Infiltration ED50: mg/kg orally
Experimental: Hartley guinea-pigs were orally received a suspension of test compounds at a dose of 0.03 to 3 mg/2 mL/kg. One hour later, the animals were received 0.1 mg/mL lipopolylsaccharide (LPS) in a physiological saline via an inhalational route with a nebulizer for 30 minutes. Twenty-four hours after the LPS inhalation, BALF samples were collected, and neutrophils were counted.

[3] = test system: actively sensitized guinea pigs; test: Inhibition of antigen-induced immediate asthmatic response (airway resistance, Konzett-Rossler); type: in vivo, Hartley guinea pigs; details: Cavia porcellus, oral, 60 minutes prior to antigen-challenge, reduction of increase in airway resistance, read-out: Inhibition of Asthmatic response ED50: mg/kg orally
Experimental: Male Hartley outbred guinea pigs were sensitized by administering intraperitoneally physiological saline (0.5 ml) containing ovalbumin (1 mg, antigen) and 5×10^9 inactivated Bordetella pertussis dead cells (adjuvant). Eleven to thirteen days after the first sensitization, 0.05 ml of an ovalbumin solution (1 mg/ml) (ovalbumin is dissolved in physiological saline) was administered to the lateroabdominal region of each guinea pig intracutaneously. An establishment of sensitization was checked relying on cutaneous reaction. Only guinea pigs wherein significant reddening responses occurred 5 to 10 minutes later were employed in the next measurement test for airway resistance.
The guinea pigs (3 animals per group) actively sensitized in the above step (1) were employed to measure for their airway pressure according to Konzett-Rossler method (Arch. Exp. Path. Pharmakol., 195, 71 (1940)).
Thirteen days after the final sensitization, guinea pigs fasted overnight, and were on the next day anesthetized with a pentobarbital solution (30 mg/1.2 ml/kg, dissolved in physiological saline, intraperitoneal administration). After the guinea pigs were fixed in a supine position, their trachea was incised followed by insertion with one port of a 4-port cannula. Among the remaining 3 ports, 2 ports were connected to an artificial respirator (Model 683, Harvard). The animals were ventilated with 10 ml/kg of air per ventilation at a rate of 60 beats/min via the artificial respirator from the cannula. One port remainder was connected to a respiratory amplifier (AR-601G, Nihon Kohden, Japan) via an airflow resistance tube (TV-241T, Nihon Kohden, Japan) and a differential pressure transducer (TP-602T, Nihon Kohden, Japan) connected with a control box (RY-111S, Nihon Kohden, Japan). From a catheter inserted into a left carotid artery, blood pressures were monitored with a blood pressure measurement unit (AP641G, NEC Corp., Japan) via a blood pressure transducer (TP-300T, Nihon Kohden, Japan), and heart rates were recorded on a thermal recorder (WT-685G, Nihon Kohden, Japan), relying on blood pressure pulse waves after being led to a cardiograph unit (AT601G, Nihon Kohden, Japan).
After airway pressure became stable, an ovalbumin solution (1 mg/ml, dissolved in physiological saline) was administered at a dose of 1 ml/kg via a tube with which the right jugular vein of guinea pigs was cannulated.
Each test compound was suspended in 0.5% CMC-Na solution and administered orally with an oral sound at a dose of 0.03 to 20 mg/2 ml/kg 60 minutes prior to the antigen-challenge. Control groups received only 0.5% CMC-Na solution in an equivalent amount. The pentobarbital-anesthetization and tracheal incision were conducted 30 minutes prior to the antigen-challenge.
Each percent reduction of increase in airway resistance (each test compound-administered group versus control group) was calculated according to the equation given below. ED50 was obtained by Probit method.

T1 sequence (P08684 whole entry): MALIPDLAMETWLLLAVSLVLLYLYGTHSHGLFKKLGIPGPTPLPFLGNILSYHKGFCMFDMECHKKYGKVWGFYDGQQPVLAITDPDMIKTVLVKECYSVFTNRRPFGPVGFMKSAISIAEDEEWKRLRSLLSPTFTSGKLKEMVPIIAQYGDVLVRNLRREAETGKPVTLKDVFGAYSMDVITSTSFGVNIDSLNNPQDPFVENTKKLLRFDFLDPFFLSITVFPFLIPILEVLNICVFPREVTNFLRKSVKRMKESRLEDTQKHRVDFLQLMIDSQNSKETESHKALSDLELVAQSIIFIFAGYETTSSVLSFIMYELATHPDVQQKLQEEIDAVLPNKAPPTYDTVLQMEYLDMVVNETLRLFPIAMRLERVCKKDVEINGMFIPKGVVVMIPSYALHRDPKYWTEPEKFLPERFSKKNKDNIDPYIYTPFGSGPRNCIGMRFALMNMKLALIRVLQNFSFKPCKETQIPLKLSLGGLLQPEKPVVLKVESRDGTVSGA
T2 sequence (P10635 whole entry): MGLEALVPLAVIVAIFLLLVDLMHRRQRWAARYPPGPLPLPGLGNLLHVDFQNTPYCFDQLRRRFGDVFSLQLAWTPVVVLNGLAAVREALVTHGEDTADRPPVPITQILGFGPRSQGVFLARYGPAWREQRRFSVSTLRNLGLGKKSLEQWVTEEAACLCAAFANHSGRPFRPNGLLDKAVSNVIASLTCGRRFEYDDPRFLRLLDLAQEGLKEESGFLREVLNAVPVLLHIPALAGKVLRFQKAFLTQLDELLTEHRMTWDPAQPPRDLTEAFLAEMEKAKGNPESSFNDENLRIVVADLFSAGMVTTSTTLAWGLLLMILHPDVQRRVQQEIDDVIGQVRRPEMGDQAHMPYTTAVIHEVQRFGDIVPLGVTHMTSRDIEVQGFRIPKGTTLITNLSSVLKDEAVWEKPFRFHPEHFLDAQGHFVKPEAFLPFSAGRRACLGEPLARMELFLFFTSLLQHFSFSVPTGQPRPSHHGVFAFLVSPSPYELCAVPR

IC50 (CYP3A4): 0.98 µM
IC50 (CYP2D6): 9.1 µM
SMILES: O=C(Nc1c(Cl)cncc1Cl)c1ccc(OC(F)F)c(OCC2CC2)c1 [Roflumilast, 3-(cyclopropylmethoxy)-N-(3,5-dichloro-4-pyridyl)-4-(difluoromethoxy)benzamide, reference compound]
Occurrence of emesis (Beagle dogs): 2 animals among 3 were afflicted with emetic reactions
ED50 (TNF-α production): 0.26 mg/kg
ED50 [1]: 0.36 mg/kg
ED50 [2]: 0.98 mg/kg
ED50 [3]: 0.66 mg/kg
